Data reported in patent US20220304945A1, “METHODS OF TREATING METABOLIC SYNDROME RELATED CONDITIONS USING RETINOIC ACID RECEPTOR AGONISTS” (Cornell University, priority 2014, published 2022).

Tested on: HF-fed C57/BL6 mice
Experiment: HF-fed mice treated 3 months: body weight, GTT, fasting glucose (Example 22)
Assay type: in vivo, mouse
Description: METHODS. Preparation of RARβ agonists solution. AC261066 and AC55649 were dissolved in dimethyl sulfoxide (DMSO) at the concentration of 3.0 mg/ml and diluted in the drinking water for mice to the final concentration of 3.0-mg/100 ml. Mice, diet, and drug treatments. Wt male C57/BL6 male mice were maintained on either a standard laboratory chow-fed diet (Con) with 13% kcal fat, (diet #5053, Lab Diet, Inc, St. Louis, Mo., [n=4]) or a high fat, western style diet (HFD) with 45% kcals from fat, (diet #58126, Lab Diet, Inc., St. Louis, Mo.) for 3 months. Two weeks after the start of the HFD treatment, the HFD group was further split into 3 groups for 3 months: i) HFD and drinking water containing 1% DMSO (n=5); ii) high fat diet (HFD) and drinking water containing 3.0 mg/100 ml AC261066, a specific RARβ agonist (n=5) or iii) HFD and drinking water containing 3.0 mg/100 ml AC55649, a specific RARβ agonist (n=4). After 3 months the mice were tested for glucose intolerance with an intra-peritoneal glucose tolerance test (GTT). Mice were then sacrificed by cervical dislocation. Blood and various tissue samples were harvested.
Glucose Tolerance Test (GTT). Glucose tolerance was performed using an intraperitoneal glucose tolerance test (GTT). Mice were fasted overnight (˜16 hrs) followed by intra-peritoneal injections (n=3-5 per group) of 50% glucose in PBS at 2.0 g of glucose/kg of body weight. Tail vein blood was collected at 15, 30, 45, 60, and 120 minutes post-injection for glucose measurements using a FreeStyle Lite Blood Glucose Monitoring System (Abbott Diabetes Care, Inc. Alameda, Calif.). Random and fasting blood glucose measurements were taken from tail veins of 4 mice per group at 2-3 random time points daily or just prior to GTT. Means are expressed as ±standard error of the mean (S.E.M) and P-values were calculated using one-way analysis of variance followed by Bonferroni post-hoc analysis. Grubbs' maximum normal residual test was used for detection of one or more outliers.

CCCCOCCOc1nc(-c2ccc(C(=O)O)c(F)c2)sc1C [AC261066]
glucose tolerance and area under the curve glucose: improved | overnight fasting glucose levels: significant reductions | decrease in body weights compared to HF-fed mice (3.0 mg/100 ml drinking water): ~10%
